Test results reported in patent US20080031866A1, “METHOD FOR MODULATING THE PHARMACOKINETICS AND METABOLISM OF A THERAPEUTIC AGENT” (priority 2006, published 2008).

Experiments:
[1] = Oral gavage pharmacokinetics, jugular and portal vein sampling, first pass metabolism; format: in vivo, rat; details: for AUC: po, 75 mg/kg; for AUC / concentration at 0 h / concentration at 0.08 h / concentration at 0.25 h / concentration at 0.33 h / concentration at 0.5 h / concentration at 0.67 h / concentration at 1 h / concentration at 1.25 h / concentration at 1.5 h / concentration at 2 h / concentration at 3 h / concentration at 4 h / concentration at 6 h / concentration at 12 h / concentration at 24 h / Cmax: rats N=4; for Cmax: read-out: Cmax average ± standard deviation
Method: Two separate IV studies were carried out using two separate lots of animals. IV-A was run on the same lot of animals as the oral gavage study and IV-B was run on the same lot of animals as the intraduodenal and intra-colonic studies.
(§1) For the oral gavage dosing, Compound 1 was prepared in neat PEG-400. For the intraduodenal and intracolonic dosing solutions, Compound 1 was added to neat Tween 80, the mixture was sonicated for thirty minutes at 45° C. until Compound 1 was completely dissolved and then deionized (DI) water was added to form a solution consisting of 20% Tween 80 and 80% DI water by weight.
For the IV and oral gavage dosing (sampling at jugular and portal vein), young adult male Sprague Dawley rats weighing 250-400 g were purchased from Hilltop Lab Animals Inc. All rat experiments were conducted under approved animal protocols. The rats for the oral gavage dosing were catheterized at Hilltop Lab Animals Inc, had two chronic catheters for sampling: jugular and portal, were housed in cages of Culex™ Automated Blood Sampler (ABS) and blood samples were collected simultaneously via both cannula and were controlled by the Culex™ ABS control software.
(§2) A quantitative method for determining the amount of (6,7-dimethoxy-2,4-dihydro-indeno[1,2-c]pyrazol-3-yl)-(3-fluoro-phenyl)-amine Compound 1 and its major metabolites, glucuronide A (Cpd 1-GluA) and glucuronide B (Cpd 1-GluB) (see Scheme A) in rat plasma was developed using phenacetin as an internal standard. [drawing 1]
(§3) The two glucuronide conjugates were prepared and purified to permit accurate quantification of the levels of intact parent Compound 1 versus Cpd 1-GluA and Cpd 1-GluB. Each standard curve for Compound 1, Cpd 1-GluA, and Cpd 1-GluB generated from rat plasma included ten concentration levels. […] The quantitative procedure for each sample included: sample preparation, HPLC separation and mass spectrometry detection.
(§4) The rat plasma was prepared using protein precipitation techniques. Reference standards and quality control samples in rat plasma for Compound 1 were transferred to a 96 deep-well plate. The precipitation solution contained 100 ng/ml of internal standard in acetonitrile. 300 μl of precipitation solution were added to 100 μl of each standard, quality control and plasma sample. Samples were vortexed for 10 mins, then centrifuged at 4500 RPM for 10 mins. 10 μl of each sample were injected for LC/MS/MS analysis.
(§5) The HPLC column chosen for the bioanalysis was purchased from Thermo Electron (Hypersil BetaBasic C18, 5 cm×2.1 mm). The eluting solvents were composed of Solvent A: 0.1% formic acid in H2O and Solvent B: 0.1% formic acid in acetonitrile. A step gradient was used and flow rate was 300 μl/min. The total run time was 3.2 mins. Solvent B was increased from 35% at 0 min to 75% at 2.1 mins and decreased back to 35% at 2.2 mins. The retention times for Compound 1, phenacetin, Cpd 1-GluA and Cpd 1-GluB were 1.1 min, 0.9 min, 1.3 min, and 1.6 min, respectively.
API3000 with a Turbo Ionspray interface from Applied Biosystems was used for the detection of Compound 1, the internal standard and major metabolites. Electrospray ionization was performed in the positive ion mode heated nebulizer with a temperature of 300° C. LC/MS/MS chromatograms were acquired in MRM (multiple reaction mode). The MRM transitions for Compound 1, the internal standard, Cpd 1-GluA and Cpd 1-GluB were from 326.3 to 190.6, 181.1 to 110.3, 502.2 to 368.3 and 502.2 to 326.4, respectively. […]

[2] = Intraduodenal dosing with and without β-glucuronidase, catheterized rat; format: in vivo; details: male, Sprague Dawley, rat, plasma, 10 mg/kg, rats N=6; for AUC: read-out: AUC average ± standard deviation 0 to 6 hours; for Cmax: read-out: Cmax average ± standard deviation; for concentration at 0 h / concentration at 0.25 h / concentration at 0.5 h / concentration at 1 h / concentration at 2 h / concentration at 3 h / concentration at 4 h / concentration at 5 h / concentration at 6 h: other: intraduodenal
Method: A catheterized rat model was used in which the agent alone or agent and β-glucuronidase enzyme was administered intraduodenally or intracolonically. The intraduodenal and intracolonic dosing was intended to prevent the potential for loss of enzymatic activity when orally dosing the β-glucuronidase (e.g. by degradation in the stomach). […]
as §1
For the oral enzyme solutions, β-glucuronidase was added to the final formulation at a concentration of 57,600 units/ml.
For the intraduodenal and intracolonic dosing, male Sprague Dawley rats weighing 300-400 g were purchased from Charles River Labs. All rat experiments were conducted under approved animal protocols. The rats were catheterized at Charles River Labs and had one or more of the following chronic catheters for dosing and sampling: jugular/carotid, duodenal, and colonic. Rats were limited to only one GI catheter and one vascular catheter. For IV dosing, rats were purchased with jugular and carotid catheters for dosing in the jugular catheter and blood sampling through the carotid catheter. For intraduodenal/intracolonic dosing, rats had one of the GI catheters for dosing and a carotid catheter for blood sampling.
The surgeries were done two weeks prior to start of testing. Rats were fed 4 hours post dose administration. All rats were dosed without anesthesia and sacrificed at the end of the study.
as §2, §3, §4, §5
API3000 with a Turbo Ionspray interface from Applied Biosystems was used for the detection of Compound 1, the internal standard and major metabolites. Electrospray ionization was performed in the positive ion mode heated nebulizer with a temperature of 300° C. LC/MS/MS chromatograms were acquired in MRM (multiple reaction mode). […]

[3] = male, Sprague Dawley, rat, plasma (jugular vein sample), Compound 1 75 mg/kg oral gavage, jugular sample
[4] = male, Sprague Dawley, rat, plasma (portal vein sample), Compound 1 75 mg/kg oral gavage, portal sample
[5] = male, Sprague Dawley, rat, portal vein plasma, Compound 1 75 mg/kg oral gavage, portal sample
[6] = Compound 1 10 mg/kg intraduodenal with β-glucuronidase
[7] = Compound 1 10 mg/kg intraduodenal without enzyme

## COc1cc2c(cc1OC)-c1nn(C3OC(C(=O)O)C(O)C(O)C3O)c(Nc3cccc(F)c3)c1C2 (stereo in doubt) [Cpd 1-GluB]
[1]; jugular vein, oral gavage
  Ratio of metabolite to Compound 1: 1
[1]; male, Sprague Dawley, rat, plasma (jugular vein sample), Compound 1 75 mg/kg oral gavage, jugular sample, read-out: AUC average ± standard deviation 0 to 24 hours
  AUC: 1710 ng·h/mL
[1]; male, Sprague Dawley, rat, plasma (jugular vein sample), Compound 1 75 mg/kg oral gavage, jugular sample, read-out: AUC average ± standard deviation 0 to infinite hours
  AUC: 2180 ng·h/mL
[1]; [3]
  concentration at 0 h: 0 ng/mL
  concentration at 0.08 h: 37.8 ng/mL
  concentration at 0.25 h: 169 ng/mL
  concentration at 0.33 h: 233 ng/mL
  concentration at 0.5 h: 223 ng/mL
  concentration at 0.67 h: 244 ng/mL
  concentration at 1 h: 230 ng/mL
  concentration at 1.25 h: 178 ng/mL
  concentration at 1.5 h: 169 ng/mL
  concentration at 2 h: 141 ng/mL
  concentration at 3 h: 90 ng/mL
  concentration at 4 h: 51.4 ng/mL
  concentration at 6 h: 71.3 ng/mL
  concentration at 12 h: 86.5 ng/mL
  concentration at 24 h: 29 ng/mL
  Cmax: 268 ± 52 ng/mL
[1]; [4]
  concentration at 0.67 h: 290 ng/mL
  concentration at 1 h: 164 ng/mL
  concentration at 1.25 h: 183 ng/mL
  concentration at 1.5 h: 151 ng/mL
  concentration at 2 h: 142 ng/mL
  concentration at 3 h: 105 ng/mL
  concentration at 4 h: 79.5 ng/mL
  concentration at 6 h: 120 ng/mL
  concentration at 12 h: 87.2 ng/mL
[1]; male, Sprague Dawley, rat, plasma, rats, Compound 1 75 mg/kg oral gavage
  Tmax: 30 min
[1]; male, Sprague Dawley, rat, portal vein plasma, Compound 1 75 mg/kg oral gavage, portal sample, read-out: AUC average ± standard deviation 0 to 24 hours
  AUC: 1960 ng·h/mL
[1]; male, Sprague Dawley, rat, portal vein plasma, Compound 1 75 mg/kg oral gavage, portal sample, read-out: AUC average ± standard deviation 0 to infinite hours
  AUC: 2490 ng·h/mL
[1]; [5]
  concentration at 0 h: 0 ng/mL
  concentration at 0.08 h: 82.8 ng/mL
  concentration at 0.25 h: 215 ng/mL
  concentration at 0.33 h: 263 ng/mL
  concentration at 0.5 h: 192 ng/mL
  concentration at 24 h: 39.9 ng/mL
  Cmax: 324 ± 129 ng/mL
[1]; portal system, oral gavage
  Mean ratio of metabolite to Compound 1: 0.2
[2]; [6]
  AUC: 1770 ng·h/mL
  Cmax: 755 ± 509 ng/mL
  concentration at 0 h: 0 ng/mL
  concentration at 0.25 h: 508 ± 342 ng/mL
  concentration at 0.5 h: 503 ± 363 ng/mL
  concentration at 1 h: 676 ± 586 ng/mL
  concentration at 2 h: 275 ± 260 ng/mL
  concentration at 3 h: 271 ± 181 ng/mL
  concentration at 4 h: 194 ± 165 ng/mL
  concentration at 5 h: 146 ± 84.4 ng/mL
  concentration at 6 h: 119 ± 108 ng/mL
[2]; [7]
  AUC: 128 ± 55.3 ng·h/mL
  Cmax: 75.7 ± 27.4 ng/mL
  concentration at 0 h: 0 ng/mL
  concentration at 0.25 h: 70.2 ± 29.3 ng/mL
  concentration at 0.5 h: 72.4 ± 28.2 ng/mL
  concentration at 1 h: 51.2 ± 24.9 ng/mL
  concentration at 2 h: 13.5 ± 5.5 ng/mL
  concentration at 3 h: 7.1 ± 5 ng/mL
  concentration at 4 h: 9.6 ± 6.7 ng/mL
  concentration at 5 h: 9.2 ± 4.1 ng/mL
  concentration at 6 h: 10.4 ± 4 ng/mL
